Data published in US7534763B2 (Bristol-Myers Squibb Company, priority 2004, dated 2009).
Like-named read-outs stand apart in the source and are kept apart here. Where a SMILES comes first, the peptide text is derived from it. [ ]: non-standard residue; d: D form. Ala(6-(2-MePh)pyridin-3-yl) = Cc1ccccc1-c1ccc(C[C@H](N)C(=O)O)cn1; Bip(2'-Et-4'-OMe) = CCc1cc(OC)ccc1-c1ccc(C[C@H](N)C(=O)O)cc1; αMePhe(2-F) = C[C@](N)(Cc1ccccc1F)C(=O)O; Aib = CC(C)(N)C(=O)O

Tests used:
ob/ob mice = assay: intraperitoneal glucose tolerance test (ipGTT) after sc injection in ob/ob mice (plasma glucose, insulin); format: in vivo; conditions: for Potency in ob/ob mice, ED50: sc injection, ipGTT, plasma glucose AUC
Description: (§1) Peptides were dissolved in an appropriate vehicle at a concentration in nmol/ml equivalent to the dose that was to be administered in nmol/kg so that each mouse would receive the same volume/weight of dosing solution. Male C57BL/6J-ob/ob mice (10 weeks old) were randomized into groups of 6 mice per group based on fed plasma glucose and body weight. After an overnight fast, mice were weighed and placed in the experimental lab. After 30 min in the environment, the mice were bled via tail tip at −30 min and immediately injected subcutaneously (sc) with vehicle or the peptide dissolved in vehicle (0.1 ml solution/100 g body weight). At time 0 the mice were bled and then injected intraperitoneally with 50% glucose (2 g/kg) to initiate the intraperitoneal glucose tolerance test (ipGTT). The mice were bled 30, 60, 120 and 180 min after the glucose injection. Blood samples were drawn into potassium EDTA, placed on ice during the study and subsequently centrifuged for 10 min at 3000 rpm at 4° C. Plasma samples were diluted 11-fold for glucose analysis in the Cobas System. Another 5 μl plasma sample was diluted 5-fold with 20 μl of Sample Diluent (Insulin ELISA assay kit, Crystal Chem Inc.) and stored at −20° C. for subsequent analysis using the Ultra Sensitive Mouse Insulin ELISA kit (Crystal Chem Inc.).

[1] = Exposure during ipGTT in ob/ob mice; format: in vivo; conditions: sc
Description: as §1

[2] = Solubility of compound of SEQ ID NO:9 in the presence of Zn(II) / Zn adduct; format: physicochemical; conditions: pH 6.8, 50 mM phosphate buffer
Description: Once the Zn/Compound of SEQ ID NO:9 adduct was formed, formulation development studies were conducted in order to evaluate the solubility of the compound of SEQ ID NO:9 in the presence of Zn(II). An excess amount of the compound of SEQ ID NO:9 was suspended in pH 6.8, 50 mM phosphate buffer. The suspension was then placed on an orbital shaker (Model, 100 RPM) at ambient temperature for 12 hours. The suspension was then centrifuged (Model, speed) and the saturated the clear supernatant of the compound of SEQ ID NO:9 was collected into 10 ml centrifuge tubes. A predetermined amount of zinc acetate solution (50 mM, pH 6.8 phosphate buffer) was added into the saturated solution and then precipitated. The concentration of the compound of SEQ ID NO:9 in solution was obtained by centrifuging the suspension and analyzing the clear supernatants by HPLC.
To confirm that the Zn/Compound of SEQ ID NO:9 binding is reversible, the Zn/Compound of SEQ ID NO:9 adduct was suspended in pH 6.8, 50 mM phosphate buffer. A strong chelating agent for Zn(II), EDTA, was added into the suspension in excess amount. The Zn/Compound of SEQ ID NO:9 suspension with and without EDTA was centrifuged and the supernatants were injected into HPLC.

[3] = Dog pharmacokinetic study (iv and sc, solution vehicles); format: in vivo
Description: The pharmacokinetic parameters of the compound of SEQ ID NO:9 were determined in male beagle dogs (n=4, 14±1 kg). Following an overnight fast, each animal received the compound of SEQ ID NO:9 either as an intravenous bolus via femoral vein (67 μg/kg) or by subcutaneous injection given at near the shoulder blades (67 μg/kg). Each animal received both intravenous and subcutaneous doses with a one-week washout between doses following a crossover design. […] Serial blood samples were collected in EDTA-containing microcentrifuge tubes at predose, 0.083, 0.25, 0.5, 0.75, 1, 2, 4, 6, 8, 24, and 30 hours post-dose after intravenous administration; at predose, 0.25, 0.5, 0.75, 1, 2, 4, 6, 8, 24, and 30 hours post-dose after subcutaneous administration. Approximately 0.3 mL of blood was collected at each time point. Blood samples were immediately centrifuged at 4° C. The obtained plasma was frozen with dry ice and stored at −20° C. Plasma drug levels were determined using the LC-MS/MS assay described above.
Plasma samples from in vivo dog study were prepared for analysis by precipitating plasma proteins with two volumes of acetonitrile containing an internal standard. The samples were vortex mixed and removed the precipitated proteins by centrifugation. The resulting supernatants were transferred to a 96-well plate and 10 μL were injected for analysis. Samples were prepared with the Packard Multiprobe II and Quadra 96 Liquid Handling System.
The HPLC system consisted of two Shimadzu LC10AD pumps (Columbia, Md.), a CTC PAL autosampler (Leap Technologies, Switzerland). The column used was a YMC Hydrosphere C18 (2.0×50 mm, 3 μm) (YMC, Inc., Milford, Ma.). The column temperature was maintained at 50° C. and the flow rate was 0.3 mL/minute. The mobile phase A consisted of 10 mM ammonium formate and 0.1% formic acid in water and mobile phase B consisted of 0.1% formic acid in acetonitrile. The initial mobile phase composition was 5% B, and remained at 5% B for one minute to equilibrate the column. The composition was ramped to 95% B over two minutes and held there for one additional minute. The mobile phase was then returned to initial conditions in one minute. Total analysis time was five minutes. A switching valve was used. The eluents between 0-1 minute were diverted to the waste.
The HPLC was interfaced to a Sciex API 4000 mass spectrometer, (Applied Biosystems, Foster City, Calif.) and was equipped with a TurboIonspray ionization source. Ultra high purity nitrogen was used as the nebulizing and turbo gas. The temperature of turbo gas was set at 300° C. and the interface heater was set at 60° C. Data acquisition utilized selected reaction monitoring (SRM). Ions representing the (M+2H)^2+ species for the compound of SEQ ID NO:9, and (M+2H)^2+ for BMS-501143 (IS) were selected in Q1 and were collisionally dissociated with high purity nitrogen at a pressure of 3.5×10^−3torr to form specific product ions which were subsequently monitored by Q3.
The standard curve concentrations, ranging from 1 to 1000 nM and from 4 to 5000 nM, were used for the in vivo samples obtained from low and high doses, respectively. The curves were fitted with a quadratic regression weighted by reciprocal […]. Standards were analyzed in duplicate. Quality control (QC) samples, prepared in blank matrix at the same concentrations as the standard were also analyzed in each analytical set. For the compound of SEQ ID NO:9, the calculated concentrations of more than 80% of the QCs were within 20% of nominal concentration, indicating acceptable assay performance.
The compound of SEQ ID NO:9 plasma concentration vs. time data were analyzed by noncompartmental methods using the […]™ software program. The Cmax and Tmax values were recorded directly from experimental observations. The AUC0-n and AUCtot values were calculated using a combination of linear and log trapezoidal summations. […]

[4] = Solubility of protamine/Compound of SEQ ID NO:9 adduct and in protamine solution; format: physicochemical; conditions: MeOH
Description: Thus, the administration of the protamine/Compound of SEQ ID NO:9 adduct may need a suitable suspending agent; or it maybe injected as dry powder.
Therefore, suspension of the compound of SEQ ID NO:9 in the presence of protamine could still provide extended release effect without using pre-formed protamine/SEQ ID NO:9 adduct.

[5] = male, beagle, plasma, sc, 67 ug/kg, dog, subcutaneous 67 μg/kg, propylene glycol:phosphate buffer (50:50)

Exposure/dose during ipGTT in ob/ob mice [1]: 18 nM * h/nmol/kg
solubility thermodynamic ([2]; aqueous buffer, 25° C., excess EDTA): 18 µg/mL
Exposure in dogs (sc@67 μg/kg) ([3]; Table I, vehicle 0.2 M Tris buffer (pH 8.0)): 0.452 µM·h
Vss relative to extracellular fluid ([3]; dog, iv, extracellular fluid 0.14 L/kg): 71 % of extracellular fluid
systemic clearance as % of liver blood flow ([3]; dog, iv, liver blood flow 31 mL/min/kg): 3.2 % of liver blood flow
Vss relative to vascular fluid ([3]; dog, iv, vascular fluid 0.05 L/kg): 2 times of vascular fluid
clearance ([3]; male, beagle, blood, 67 ug/kg, dog, intravenous 67 μg/kg, propylene glycol:phosphate buffer (50:50), read-out: CLB (systemic blood clearance)): 0.9 ± 0.2 mL/min/kg
MRT ([3]; male, beagle, plasma, 67 ug/kg, dog, intravenous 67 μg/kg, propylene glycol:phosphate buffer (50:50)): 3 ± 1 h
clearance ([3]; male, beagle, plasma, 67 ug/kg, dog, intravenous 67 μg/kg, propylene glycol:phosphate buffer (50:50), read-out: CLp): 0.6 ± 0.1 mL/min/kg
Vd ([3]; male, beagle, plasma, 67 ug/kg, dog, intravenous 67 μg/kg, propylene glycol:phosphate buffer (50:50), read-out: VSS): 0.1 ± 0.03 L/kg
Cmax [3, 5]: 90 ± 29 nM
Tmax [3, 5]: 5 ± 1 h
solubility [4]: > 50000 µg/mL
Compound: CCc1cc(OC)ccc1-c1ccc(C[C@H](NC(=O)[C@H](CC(=O)O)NC(=O)[C@H](CO)NC(=O)[C@@H](NC(=O)[C@](C)(Cc2ccccc2F)NC(=O)[C@@H](NC(=O)CNC(=O)[C@H](CCC(=O)O)NC(=O)C(C)(C)NC(=O)[C@@H](N)Cc2c[nH]cn2)[C@@H](C)O)[C@@H](C)O)C(=O)N[C@@H](Cc2ccc(-c3ccccc3C)nc2)C(N)=O)cc1 [SEQ ID NO: 9] (H-H[Aib]EGT[αMePhe(2-F)]TSD[Bip(2'-Et-4'-OMe)][Ala(6-(2-MePh)pyridin-3-yl)]-NH2)
% AUC Reduction in Plasma Glucose in an IP Glucose Tolerance Test after SC Injection of Compound (ob/ob mice; ob/ob mice, 10 nmol/kg, vs vehicle group): −68% (p < 0.0001)
effect on postprandial plasma glucose (in words) (ob/ob mice; ob/ob mice, sc, ipGTT 0-180 or 210 min): statistically significant decrease
Potency in ob/ob mice, ED50 (ob/ob mice): 5 nmol/kg
Potency in ob/ob mice, ED50 (ob/ob mice; listed as 9): ED50 = 5 nmoles/kg
solubility in the presence of Zn(II) / of the Zn adduct (in words) [2]: continued to decrease until below the detection limit of HPLC
